Patent US20130243707A1, “TOPICAL COMPOSITIONS” (priority 2006, published 2013)
Blank lines part the entries; values can stand above or below the compound they belong to.

Experiments:
[1] = cited from earlier work
[2] = cited from earlier work; remark: listed apart in the source
[3] = Solubility of Drugs in single solvent alcohols; assay type: physicochemical
Description: Briefly, the indicated NSAID was weighed and added to a beaker. To each beaker, incremental amounts of the indicated solvent was weighed and added. The beakers were sealed with aluminum foil and placed at room temperature or in a 35 C water bath for 20-30 minutes. They beakers were shaken frequently to mix the contents. After 20-30 minutes the solvent alcohols were examined. If a single phasic solution was not yet achieved, an additional aliquot of the solvent was added and the cycle was repeated until complete solvation had occurred.

[4] = Super-solvent water effect (maximum water before NSAID precipitates); assay type: physicochemical; details: for Super-solvent Effect: in %
Description: Methods. […] These amounts are chosen based upon the solubility of one gram of NSAID and the amount of the single solvent alcohol for saturation. Next, water was added in step-wise manner to determine the maximum amount that can be added before any visible amount of the NSAID precipitated (i.e., the volume of water that can be added and yet remain single phasic).

[5] = Maximal NSAID and water concentrations in PG/PEG solvent systems; assay type: physicochemical; design: B maximum: unit not given here
Excerpt: With the teaching herein, useful Drug and water concentrations can be determined for a given solvent system. Such concentrations can be described by the equation W=mD+b, where W is a water concentration, D is the Drug concentration, b is the y intercept, and m is the slope.

[6] = Super-solvent effect (Drug solubilized by combinations of solvent alcohols); assay type: physicochemical
Description: Methods. First, the amount of each solvent alcohol required to solubilize one gram of NSAID was determined (saturation amount). Next, each combination of 2, 3 and 4 solvent alcohols were made using the saturation amounts determined by the first step. Finally, the amount of drug that could be solubilized by the solvent systems (i.e. the solvent alcohol combinations) was determined. The super-solvent effect was determined using this protocol, where percent=actual grams solubilized divided by the predicted grams (based upon the first step) expressed as percent increase (e.g. if twice the predicted amount could be solubilized, the super-solvent effect would be % 100.

[7] = Flurbiprofen 2 gm, EtOH 2 gm, IPA 3 gm
[8] = Flurbiprofen 2 gm, PEG 2 gm, EtOH 2 gm
[9] = Flurbiprofen 2 gm, PEG 2 gm, IPA 3 gm
[10] = Flurbiprofen 2 gm, PG 6 gm, EtOH 2 gm
[11] = Flurbiprofen 2 gm, PG 6 gm, IPA 3 gm
[12] = Flurbiprofen 2 gm, PG 6 gm, PEG 2 gm
[13] = Flurbiprofen 3 gm, PEG 2 gm, EtOH 2 gm, IPA 3 gm
[14] = Flurbiprofen 3 gm, PG 6 gm, EtOH 2 gm, IPA 3 gm
[15] = Flurbiprofen 3 gm, PG 6 gm, PEG 2 gm, EtOH 2 gm
[16] = Flurbiprofen 3 gm, PG 6 gm, PEG 2 gm, IPA 3 gm
[17] = Flurbiprofen 4 gm, PG 6 gm, PEG 2 gm, EtOH 2 gm, IPA 3 gm

SMILES: O=C(O)c1ccccc1Nc1cccc(C(F)(F)F)c1 [flufenamic acid]
- Log P [1]: 5.62

SMILES: C=CCOc1ccc(CC(=O)O)cc1Cl [alclofenac]
- Log P [1]: 2.47
- pKa [2]: 4.26

SMILES: CN1C(C(=O)Nc2ccccn2)=C(O)c2ccccc2S1(=O)=O [piroxicam]
- Log P [1]: 1.8
- pKa [2]: 3.6

- Maximum Drug Concentration in single alcohol: EtOH ([3]; Solubility at Room Temperature): 3.23
SMILES: O=C(O)c1cccnc1Nc1cccc(C(F)(F)F)c1 [Niflumic]

SMILES: Cc1cccc(Nc2ccccc2C(=O)O)c1C [mefenamic acid]
- Log P [1]: 5.12
- pKa [2]: 3.69

- Maximum Drug Concentration in single alcohol: EtOH ([3]; Solubility at Room Temperature): 0.25
- Maximum Drug Concentration in single alcohol: IPA ([3]; Solubility at Room Temperature): 0.10
- Maximum Drug Concentration in single alcohol: PEG ([3]; Solubility at Room Temperature): 0.05
- Maximum Drug Concentration in single alcohol: PG ([3]; Solubility at Room Temperature): 0.05
SMILES: COc1ccc2c(c1)c(CC(=O)O)c(C)n2C(=O)c1ccc(Cl)cc1 [Indomethacin]
- Log P [1]: 3.08

- Maximum Drug Concentration in single alcohol: EtOH ([3]; Solubility at 35 C): 33.33
- Maximum Drug Concentration in single alcohol: IPA ([3]; Solubility at 35 C): 25.00
- Maximum Drug Concentration in single alcohol: PEG ([3]; Solubility at 35 C): 33.33
- Maximum Drug Concentration in single alcohol: PG ([3]; Solubility at 35 C): 14.29
- Maximum Drug Concentration in single alcohol: EtOH ([3]; Solubility at Room Temperature): 16.67
- Maximum Drug Concentration in single alcohol: IPA ([3]; Solubility at Room Temperature): 14.29
- Maximum Drug Concentration in single alcohol: PEG ([3]; Solubility at Room Temperature): 12.50
- Maximum Drug Concentration in single alcohol: PG ([3]; Solubility at Room Temperature): 6.25
- Flurbiprofen % W/W ([4]; Flurbiprofen 1 gm, EtOH 2 gm): 20.0 % W/W
- Water Observed ([4]; Flurbiprofen 1 gm, EtOH 2 gm): 2 gm
- Flurbiprofen % W/W ([4]; Flurbiprofen 1 gm, IPA 3 gm): 14.3 % W/W
- Water Observed ([4]; Flurbiprofen 1 gm, IPA 3 gm): 3 gm
- Flurbiprofen % W/W ([4]; Flurbiprofen 1 gm, PEG 2 gm): 25.0 % W/W
- Water Observed ([4]; Flurbiprofen 1 gm, PEG 2 gm): 1 gm
- Flurbiprofen % W/W ([4]; Flurbiprofen 1 gm, PG 6 gm): 12.5 % W/W
- Water Observed ([4]; Flurbiprofen 1 gm, PG 6 gm): 1 gm
- Flurbiprofen % W/W [4, 7]: 18.2 % W/W
- Super-solvent Effect [4, 7]: 37.1
- Flurbiprofen % W/W [4, 8]: 25.0 % W/W
- Super-solvent Effect [4, 8]: 0.0
- Flurbiprofen % W/W [4, 9]: 15.4 % W/W
- Super-solvent Effect [4, 9]: 135.7
- Flurbiprofen % W/W [4, 10]: 12.5 % W/W
- Super-solvent Effect [4, 10]: 160.0
- Flurbiprofen % W/W [4, 11]: 11.8 % W/W
- Super-solvent Effect [4, 11]: 104.5
- Flurbiprofen % W/W [4, 12]: 14.3 % W/W
- Super-solvent Effect [4, 12]: 140.0
- Flurbiprofen % W/W [4, 13]: 18.8 % W/W
- Super-solvent Effect [4, 13]: 60.0
- Flurbiprofen % W/W [4, 14]: 13.6 % W/W
- Super-solvent Effect [4, 14]: 90.5
- Flurbiprofen % W/W [4, 15]: 17.6 % W/W
- Super-solvent Effect [4, 15]: 30.8
- Flurbiprofen % W/W [4, 16]: 13.6 % W/W
- Super-solvent Effect [4, 16]: 117.1
- Flurbiprofen % W/W [4, 17]: 15.4 % W/W
- Super-solvent Effect [4, 17]: 81.5
SMILES: CC(C(=O)O)c1ccc(-c2ccccc2)c(F)c1 (stereo not shown) [Flurbiprofen]
- Log P [1]: 4.16
- pKa [2]: 4.14

- Maximum Drug Concentration in single alcohol: EtOH ([3]; Solubility at Room Temperature): 1.23
- Maximum Drug Concentration in single alcohol: IPA ([3]; Solubility at Room Temperature): 0.62
SMILES: CCCCOc1ccc(CC(=O)NO)cc1 [Bufexamac]

- Water Added Until Precipitation Occurs ([5]; Naproxen 0.1215 gm, PG 2 gm, PEG 400 2 gm): 3.5 gm
- Water Added Until Precipitation Occurs ([5]; Naproxen 0.1755 gm, PG 1 gm, PEG 400 3 gm): 3.5 gm
- Water Added Until Precipitation Occurs ([5]; Naproxen 0.1755 gm, PG 4 gm, PEG 400 3 gm): 5 gm
- Water Added Until Precipitation Occurs ([5]; Naproxen 0.2295 gm, PG 3 gm, PEG 400 4 gm): 6.5 gm
- Water Added Until Precipitation Occurs ([5]; Naproxen 0.27 gm, PG 1 gm, PEG 400 4 gm): 4.5 gm
- Water Added Until Precipitation Occurs ([5]; Naproxen 0.324 gm, PG 2 gm, PEG 400 2 gm): 1 gm
- Water Added Until Precipitation Occurs ([5]; Naproxen 0.405 gm, PG 2 gm, PEG 400 2 gm): 0.5 gm
- Water Added Until Precipitation Occurs ([5]; Naproxen 0.468 gm, PG 1 gm, PEG 400 3 gm): 1 gm
- Water Added Until Precipitation Occurs ([5]; Naproxen 0.468 gm, PG 4 gm, PEG 400 3 gm): 2.5 gm
- Water Added Until Precipitation Occurs ([5]; Naproxen 0.54 gm, PG 1 gm, PEG 400 4 gm): 2.5 gm
- Water Added Until Precipitation Occurs ([5]; Naproxen 0.585 gm, PG 1 gm, PEG 400 3 gm): 0.5 gm
- Water Added Until Precipitation Occurs ([5]; Naproxen 0.585 gm, PG 4 gm, PEG 400 3 gm): 1.5 gm
- Water Added Until Precipitation Occurs ([5]; Naproxen 0.612 gm, PG 3 gm, PEG 400 4 gm): 2.5 gm
- Water Added Until Precipitation Occurs ([5]; Naproxen 0.675 gm, PG 1 gm, PEG 400 4 gm): 1 gm
- Water Added Until Precipitation Occurs ([5]; Naproxen 0.765 gm, PG 3 gm, PEG 400 4 gm): 1.5 gm
- Drug concentration range obtained at saturation ([5]; PG and PEG 50% to 82%, PG to PEG ratio 0.33 to 1.3): up to 13%
- B maximum (intercept of water versus Naproxen line) ([5]; PG/PEG 1/3): 52.794
- B maximum (intercept of water versus Naproxen line) ([5]; PG/PEG 1/4): 47.637
- B maximum (intercept of water versus Naproxen line) ([5]; PG/PEG 2/2): 54.158
- B maximum (intercept of water versus Naproxen line) ([5]; PG/PEG 3/4): 52.964
- B maximum (intercept of water versus Naproxen line) ([5]; PG/PEG 4/3): 56.913
SMILES: COc1ccc2cc([C@H](C)C(=O)O)ccc2c1 [Naproxen]

SMILES: O=C(O)Cc1ccc(-c2ccccc2)cc1 [felbinac]
- pKa [2]: 4.29

- Super-solvent Effect ([6]; PEG 400 11 gr, EtOH 6 gr): 81.0%
- Super-solvent Effect ([6]; PG 6 gr, EtOH 6 gr): 90.9%
- Super-solvent Effect ([6]; PG 6 gr, PEG 400 11 gr): 62.2%
- Super-solvent Effect ([6]; PG 6 gr, PEG 400 11 gr, EtOH 6 gr): 54.8%
- Maximum Drug Concentration in single alcohol: EtOH ([3]; Solubility at 35 C): 14.29
- Maximum Drug Concentration in single alcohol: PEG ([3]; Solubility at 35 C): 8.33
- Maximum Drug Concentration in single alcohol: PG ([3]; Solubility at 35 C): 14.29
- Maximum Drug Concentration in single alcohol: EtOH ([3]; Solubility at Room Temperature): 11.11
- Maximum Drug Concentration in single alcohol: PEG ([3]; Solubility at Room Temperature): 7.69
- Maximum Drug Concentration in single alcohol: PG ([3]; Solubility at Room Temperature): 14.29
SMILES: O=C(O)Cc1ccccc1Nc1c(Cl)cccc1Cl [Diclofenac]

SMILES: CC(C(=O)O)c1ccc(C(=O)c2ccccc2)s1 (stereo not shown) [tiaprofenic acid]
- pKa [2]: 4.05

- B maximum ([5]; PG/PEG 1/3, b of y = −5.7055x + b): 100
- B maximum ([5]; PG/PEG 1/4, b of y = −6.4787x + b): 118
- B maximum ([5]; PG/PEG 2/2, b of y = −11.52x + b): 154
- B maximum ([5]; PG/PEG 3/4, b of y = −7.7243x + b): 124
- B maximum ([5]; PG/PEG 4/3, b of y = −6.3927x + b): 102
- Super-solvent Effect ([6]; EtOH 5 gr, IPA 11 gr): 21.6%
- Super-solvent Effect ([6]; PEG 400 9 gr, EtOH 5 gr): 60.0%
- Super-solvent Effect ([6]; PEG 400 9 gr, EtOH 5 gr, IPA 11 gr): 55.6%
- Super-solvent Effect ([6]; PEG 400 9 gr, IPA 11 gr): 63.8%
- Super-solvent Effect ([6]; PG 9 gr, EtOH 5 gr): 21.2%
- Super-solvent Effect ([6]; PG 9 gr, EtOH 5 gr, IPA 11 gr): 14.6%
- Super-solvent Effect ([6]; PG 9 gr, IPA 11 gr): 22.2%
- Super-solvent Effect ([6]; PG 9 gr, PEG 400 9 gr): 22.0%
- Super-solvent Effect ([6]; PG 9 gr, PEG 400 9 gr, EtOH 5 gr): 41.8%
- Super-solvent Effect ([6]; PG 9 gr, PEG 400 9 gr, EtOH 5 gr, IPA 11 gr): 52.5%
- Super-solvent Effect ([6]; PG 9 gr, PEG 400 9 gr, IPA 11 gr): 43.3%
- Maximum Drug Concentration in single alcohol: EtOH ([3]; Solubility at 35 C): 16.67
- Maximum Drug Concentration in single alcohol: IPA ([3]; Solubility at 35 C): 8.33
- Maximum Drug Concentration in single alcohol: PEG ([3]; Solubility at 35 C): 10.00
- Maximum Drug Concentration in single alcohol: PG ([3]; Solubility at 35 C): 10.00
- Maximum Drug Concentration in single alcohol: EtOH ([3]; Solubility at Room Temperature): 9.52
- Maximum Drug Concentration in single alcohol: IPA ([3]; Solubility at Room Temperature): 4.35
- Maximum Drug Concentration in single alcohol: PEG ([3]; Solubility at Room Temperature): 5.41
- Maximum Drug Concentration in single alcohol: PG ([3]; Solubility at Room Temperature): 4.76
SMILES: CC(=O)Nc1ccc(O)cc1 [Acetaminophen]
